Laboratory results reported in ChEMBL document CHEMBL1201862, “PubChem BioAssay data set” (2004).
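Results reflect a 48-hour exposure of cells in 96-well plates to compound at five concentrations. Abbreviation: GI50, concentration required for 50% inhibition of growth.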 Calls of active or inactive are those of the source. Cut-off read from the data, not from the text of the source: active = GI50 up to about 1.1 µM and inactive = higher.

What was measured:
Assay in all cases: growth of human tumour cells (NCI), 48 h
[1] = test system: UACC-257
[2] = test system: HOP-62
[3] = test system: NCI-H23
[4] = test system: TK-10
[5] = test system: UO-31
[6] = test system: CCRF-CEM
[7] = test system: A549
[8] = test system: MCF7
[9] = test system: OVCAR-4
[10] = test system: OVCAR-3
[11] = test system: PC-3
[12] = test system: SK-MEL-28
[13] = test system: EKVX
[14] = test system: DU-145
[15] = test system: IGROV-1
[16] = test system: T47D
[17] = test system: SR
[18] = test system: MDA-N
[19] = test system: SF-268
[20] = test system: Malme-3M
[21] = test system: HT-29
[22] = test system: M14
[23] = test system: HL-60
[24] = test system: SK-MEL-2
[25] = test system: MDA-MB-231
[26] = test system: HOP-92
[27] = test system: KM12
[28] = test system: MOLT-4
[29] = test system: SK-OV-3
[30] = test system: 786-0
[31] = test system: SF-295
[32] = test system: SNB-75
[33] = test system: RPMI-8226
[34] = test system: SNB-19
[35] = test system: A498
[36] = test system: HCC 2998
[37] = test system: SN12C
[38] = test system: SW-620
[39] = test system: OVCAR-5
[40] = test system: HCT-15
[41] = test system: SF-539
[42] = test system: OVCAR-8
[43] = test system: UACC-62
[44] = test system: NCI-H460
[45] = test system: Hs-578T
[46] = test system: CAKI-1
[47] = test system: HCT-116
[48] = test system: NCI/ADR-RES
[49] = test system: BT-549
[50] = test system: RXF 393
[51] = test system: LOX IMVI
[52] = test system: SK-MEL-5
[53] = test system: MDA-MB-435
[54] = test system: COLO 205
[55] = test system: NCI-H226
[56] = test system: K562
[57] = test system: U-251
[58] = test system: NCI-H522
[59] = test system: ACHN
[60] = test system: LXFL 529
[61] = test system: M19-MEL
[62] = test system: DLD-1
[63] = test system: SNB-78
[64] = test system: KM-20L2
[65] = test system: DMS-114
[66] = test system: DMS-273
[67] = test system: XF498

Measured: GI50

O=C(O)c1cc2c(cc1CC(Cc1ccc3c(c1)CCCC3)C(=O)O)CCCC2 (stereo unspecified)
active: [9] < 0.01 µM
inactive: [1] 44.6 µM | [2] > 100 µM | [3] > 100 µM | [4] > 100 µM | [5] > 100 µM | [6] 67.5 µM | [7] > 100 µM | [8] 38.2 µM | [10] > 100 µM | [11] > 100 µM | [12] > 100 µM | [13] 56 µM | [14] > 100 µM | [15] > 100 µM | [16] 88.1 µM | [17] > 100 µM | [18] > 100 µM | [19] 39.4 µM | [20] > 100 µM | [21] > 100 µM | [22] > 100 µM | [23] 99.8 µM | [24] > 100 µM | [25] > 100 µM | [26] 83 µM | [27] > 100 µM | [28] 59.8 µM | [29] > 100 µM | [30] > 100 µM | [31] > 100 µM | [32] > 100 µM | [33] 63.2 µM | [34] 60 µM | [35] > 100 µM | [36] 32.9 µM | [37] > 100 µM | [38] > 100 µM | [39] > 100 µM | [41] 34.4 µM | [42] > 100 µM | [43] > 100 µM | [44] > 100 µM | [45] 90.6 µM | [46] > 100 µM | [47] > 100 µM | [48] 32.8 µM | [49] 59.2 µM | [50] 41.5 µM | [51] 94.4 µM | [52] > 100 µM | [53] > 100 µM | [54] > 100 µM | [55] 54.3 µM | [56] > 100 µM | [57] > 100 µM | [58] 31.2 µM | [59] 56.5 µM
64.4 µM: [40]

COc1ccc(/C=N/n2cnc3c(sc(=S)n3-c3ccccc3)c2=O)cc1
inactive: [1] 23.6 µM | [2] 12.2 µM | [3] 23.6 µM | [4] 25.3 µM | [5] 40.4 µM | [6] 18.3 µM | [7] 45.5 µM | [60] 16.9 µM | [10] 14.9 µM | [12] 13.2 µM | [15] 37 µM | [17] 29.2 µM | [61] 33.2 µM | [19] 6.28 µM | [21] 24.5 µM | [23] 12.5 µM | [26] 4.43 µM | [27] > 100 µM | [28] 20.4 µM | [29] 13.2 µM | [31] 10 µM | [32] 2.47 µM | [33] 16.4 µM | [34] 17.7 µM | [36] 23.9 µM | [38] 99.3 µM | [39] 1.68 µM | [41] 12.8 µM | [42] 26.5 µM | [43] 16.7 µM | [44] 35.8 µM | [62] 26.8 µM | [47] > 100 µM | [52] 24.7 µM | [54] 50.8 µM | [55] 18.3 µM | [56] 15.8 µM | [57] 23.2 µM | [58] 13.5 µM | [59] 27.6 µM

CC(=O)c1cccc(NC2C(N)C(NC(=O)N(C)C)(C(C)O)C(C)(O)C2(O)COC(=O)c2c(C)cccc2O)c1 (stereo unspecified)
0.00296 µM: [40]
active: [1] 0.00113 µM | [2] < 0.001 µM | [3] < 0.001 µM | [4] < 0.001 µM | [5] 0.00191 µM | [6] < 0.001 µM | [7] < 0.001 µM | [8] < 0.001 µM | [9] < 0.001 µM | [60] 0.01 µM | [10] 0.01 µM | [63] 0.01 µM | [12] < 0.001 µM | [13] < 0.001 µM | [14] < 0.001 µM | [15] < 0.001 µM | [16] < 0.001 µM | [17] < 0.001 µM | [61] 0.01 µM | [18] < 0.001 µM | [19] 0.0263 µM | [20] < 0.001 µM | [64] 0.01 µM | [21] < 0.001 µM | [22] 0.0118 µM | [23] < 0.001 µM | [24] 0.01 µM | [25] 0.00187 µM | [26] < 0.001 µM | [27] < 0.001 µM | [28] < 0.001 µM | [29] < 0.001 µM | [30] < 0.001 µM | [31] 0.00107 µM | [32] 0.0948 µM | [33] < 0.001 µM | [34] < 0.001 µM | [35] < 0.001 µM | [36] < 0.001 µM | [37] < 0.001 µM | [38] < 0.001 µM | [39] < 0.001 µM | [65] 0.01 µM | [41] < 0.001 µM | [42] < 0.001 µM | [43] 0.01 µM | [44] < 0.001 µM | [45] < 0.001 µM | [46] < 0.001 µM | [47] < 0.001 µM | [48] 0.0134 µM | [49] < 0.001 µM | [50] < 0.001 µM | [52] < 0.001 µM | [53] < 0.001 µM | [54] < 0.001 µM | [55] < 0.001 µM | [56] < 0.001 µM | [57] < 0.001 µM | [58] 0.01 µM | [59] < 0.001 µM

CC(=O)NC1=C(NCc2ccc(Cl)cc2)C(=O)c2ccccc2C1=O
inactive: [1] 6.17 µM | [2] 12.5 µM | [3] 6.76 µM | [4] 8.24 µM | [5] 5.15 µM | [6] 8.53 µM | [7] 12.5 µM | [66] 7.67 µM | [9] 6.85 µM | [60] 6.55 µM | [10] 6.4 µM | [63] 11 µM | [12] 5.5 µM | [13] 7.62 µM | [15] 11.3 µM | [17] 8 µM | [67] 1.44 µM | [61] 5.27 µM | [19] 16.5 µM | [20] 9.4 µM | [64] 24.3 µM | [21] 17.8 µM | [22] 7.01 µM | [23] 1.39 µM | [24] 5.62 µM | [27] 8.17 µM | [28] 2.38 µM | [29] 18.2 µM | [30] 8.77 µM | [31] 13.3 µM | [32] 7.08 µM | [34] 22.6 µM | [36] 27.5 µM | [37] 13.9 µM | [38] 7 µM | [41] 4.41 µM | [42] 7.45 µM | [43] 2.61 µM | [44] 10.8 µM | [62] 6.76 µM | [47] 3.12 µM | [50] 4.24 µM | [51] 8.2 µM | [52] 5.46 µM | [54] 5.4 µM | [55] 9.59 µM | [56] 2.46 µM | [57] 6.7 µM | [59] 1.84 µM
5.57 µM: [40]
active: [58] 0.986 µM

COC(=O)C1Cc2ccc(O)c(O)c2CN1 (stereo unspecified)
29.7 µM: [40]
inactive: [1] 15.5 µM | [2] > 100 µM | [3] 16.6 µM | [4] > 100 µM | [5] 22.5 µM | [6] 35 µM | [7] > 100 µM | [8] 17.1 µM | [9] 19.3 µM | [10] 35.5 µM | [11] 26.1 µM | [12] 17.3 µM | [13] > 100 µM | [14] 30.7 µM | [15] 35.8 µM | [16] 71.9 µM | [17] 29.1 µM | [18] 16.4 µM | [19] > 10 µM | [20] 32.1 µM | [21] 23.3 µM | [22] 16.2 µM | [23] 25.8 µM | [24] 16.7 µM | [25] 19.8 µM | [26] 26.4 µM | [27] 69.3 µM | [28] 25.1 µM | [29] > 100 µM | [30] 17.5 µM | [31] 7.41 µM | [32] 19.5 µM | [33] 24.2 µM | [34] 38.3 µM | [35] > 100 µM | [36] > 100 µM | [37] 16.4 µM | [38] 21.3 µM | [39] 27.5 µM | [41] 18.4 µM | [42] > 10 µM | [43] 19.7 µM | [44] 56.9 µM | [45] 25.4 µM | [46] > 100 µM | [47] 23.7 µM | [48] 22.1 µM | [49] 18.3 µM | [50] > 100 µM | [51] 14.8 µM | [52] 15.1 µM | [53] 16.7 µM | [54] > 100 µM | [55] > 100 µM | [56] 28.8 µM | [57] 17.4 µM | [58] > 100 µM | [59] > 100 µM
